Assay results as given in patent publication US11976137B2, “Compounds for use as apelin receptor antagonists” (Cambridge Enterprise Limited, priority 2018, dated 2024).
Several values for one entry are separate records, joined by “and”; a condition that tells them apart may be missing. Identical values can stand only once. Like-named read-outs stand apart in the source and are kept apart here. Non-standard residues stand in square brackets, D forms with d. Residues, ends and D or L forms follow the SMILES beside them. *: point of attachment. Phe(3,4,5-F3) = N[C@@H](Cc1cc(F)c(F)c(F)c1)C(=O)O; Myristoyl = CCCCCCCCCCCCCC(=O)*; pGlu = O=C1CC[C@@H](C(=O)O)N1; Nle = CCCC[C@H](N)C(=O)O; Abu = CC[C@H](N)C(=O)O; Aib = CC(C)(N)C(=O)O

Columns and labels:
Design in all cases: host or cells: CHO-K1
human apelin receptor [1] = target: T1, human apelin receptor (Homo sapiens, UniProt P35414); assay: DRx cAMP assay (cAMP Hunter eXpress AGTRL1 CHO-K1), forskolin-induced cAMP accumulation; assay type: cell-based; settings: DRx cAMP pA2, antagonism of [Pyr1]apelin-13 inhibition of forskolin-stimulated cAMP
T1 sequence (P35414 1-380): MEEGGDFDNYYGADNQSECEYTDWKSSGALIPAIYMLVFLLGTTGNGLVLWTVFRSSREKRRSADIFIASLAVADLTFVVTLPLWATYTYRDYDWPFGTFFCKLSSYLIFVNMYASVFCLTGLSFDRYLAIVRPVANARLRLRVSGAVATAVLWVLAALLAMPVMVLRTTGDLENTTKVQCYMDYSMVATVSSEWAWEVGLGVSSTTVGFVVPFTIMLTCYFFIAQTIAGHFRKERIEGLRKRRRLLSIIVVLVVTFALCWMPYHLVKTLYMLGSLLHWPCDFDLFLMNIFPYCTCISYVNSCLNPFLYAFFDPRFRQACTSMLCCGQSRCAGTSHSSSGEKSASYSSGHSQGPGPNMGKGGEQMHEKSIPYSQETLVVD
Method: Antagonist activity at the apelin receptor was measured in two assays.
(§1) cAMP (cAMP Hunter™ eXpress AGTRL1 CHO-K1 GPCR Assay, DiscoverX Corporation, Ltd. Birmingham, UK) and β-arrestin (PathHunter® eXpress AGTRL1 CHO-K1 β-Arrestin GPCR Assay, DiscoverX Corporation, Ltd. Birmingham, UK) assays were performed according to the manufacturer's instructions. The cAMP assay measures the canonical signalling pathway through the G-protein. The β-arrestin assay measures the alternative signalling pathway and receptor internalisation.
Cells were then incubated with a mixture of Lysis Buffer, cAMP Buffer D and Detection Reagents for 1 hour at room temperature, followed by a 3 hour incubation with cAMP Reagent A at room temperature. Chemiluminescence was read using the LumiLITE™ Microplate Reader (DiscoverX). Concentration-response data for agonists, measured in relative light units (RLU), were analysed using a 4 parameter logistic equation in GraphPad Prism 6 (La Jolla, CA, USA) to determine values of potency expressed as the pD2 value (negative logo of the EC50 (where EC50 is the concentration producing half maximal response)), and maximum response (EMAX). Mean data from replicate experiments were normalised as percentage inhibition of forskolin-stimulated cAMP production.

human apelin receptor [2] = target: T1, human apelin receptor; assay: DRx β-arrestin assay (PathHunter eXpress AGTRL1 CHO-K1); assay type: cell-based; settings: for Kb: DRx β-Arrestin pA2; for DRx β-Arrestin pA2: cho-k1 cells, 90 min
Method: as §1
For recruitment of β-arrestin, CHO-K1 cells artificially expressing the human apelin receptor were seeded in Cell Plating medium into 96-well plates and incubated for 48 hours at 37° C. in 5% CO2. Concentration response curves were constructed to test peptides (1 pmol/L-30 μmol/L) which were diluted in Cell Plating medium and added to the cells for 90 minutes at 37° C. If no response was obtained then test peptides were investigated as antagonists. […] Detection reagents were then added for a 2-hour incubation at room temperature. […] If no agonist response was obtained, test compounds were investigated for antagonist activity by repeating [Pyr]apelin-13 concentration response curves in the absence and presence of a single concentration (1-30 μmol/L of test peptide). Data were analysed as described for the cAMP assay using the Gaddum/Schild EC50 function in GraphPad Prism 6 to determine values of pA2.

human apelin receptor [3] = target: T1, human apelin receptor; assay: Cerep radioligand binding assay on CHO-K1 cells expressing the human apelin receptor
Method: Binding assays were performed by Cerep (Celle L'Evescault, France) on Chinese Hamster Ovary (CHO-K1) cells expressing the human apelin receptor. […] The results were expressed as a percent of control specific binding ((measured specific binding/control specific binding)×100) and as a percent inhibition of control specific binding (100−((measured specific binding/control specific binding)×100)) obtained in the presence of the test compounds. […] The inhibition constants (Ki) were calculated using the Cheng Prusoff equation (Ki=IC50/(1+(L/KD)), where L=concentration of radioligand in the assay, and KD=equilibrium dissociation constant of the radioligand for the receptor).

[4] = [Glp65,Nle75,Tyr77][125I]apelin-13, read-out: Ki (binding affinity at the apelin receptor, Cerep)

Structure (SMILES) | Kb (human apelin receptor [1]) | Kb (human apelin receptor [2]) | DRx β-Arrestin pA2 (human apelin receptor [2]) | Ki (human apelin receptor [3]; Ki (binding affinity at the apelin receptor, Cerep), [Glp65,Nle75,Tyr77][125I]apelin-13) | Ki (human apelin receptor [3]; [4])
CC(C)C[C@H](NC(=O)[C@H](CCCNC(=N)N)NC(=O)[C@@H]1CCCN1C(=O)[C@H](CCCNC(=N)N)NC(=O)[C@H](CS)NC(=O)[C@H](CCCCN)NC(=O)[C@H](Cc1c[nH]cn1)NC(=O)[C@H](CS)NC(=O)[C@H](CC(C)C)NC(=O)[C@H](CCCNC(=N)N)NC(=O)[C@@H]1CCCN1C(=O)[C@H](CCCNC(=N)N)NC(=O)[C@@H](N)CS)C(=O)N[C@@H](CS)C(=O)O [MM107] (H-CRPRLCHKCRPRLC-OH; N-terminus and C-terminus assumed) | 4680 nM and 575 nM | 57.5 nM | pA2 = 7.24 | – | –
CC(C)C[C@H](NC(=O)[C@H](CCCNC(=N)N)NC(=O)[C@@H]1CCCN1C(=O)[C@H](CCCNC(=N)N)NC(=O)[C@H](CS)NC(=O)[C@H](Cc1c[nH]cn1)NC(=O)[C@H](CCCCN)NC(=O)[C@H](CS)NC(=O)[C@H](CC(C)C)NC(=O)[C@H](CCCNC(=N)N)NC(=O)[C@@H]1CCCN1C(=O)[C@H](CCCNC(=N)N)NC(=O)[C@@H](N)CS)C(=O)N[C@@H](CS)C(=O)O [MM108] (H-CRPRLCKHCRPRLC-OH) | 107 nM and 191 nM | 38.9 nM | pA2 = 7.41 | 140 nM | –
CCCC[C@H](NC(=O)[C@H](CCCNC(=N)N)NC(=O)C(C)(C)NC(=O)[C@H](CCCNC(=N)N)NC(=O)[C@H](CS)NC(=O)[C@H](Cc1c[nH]cn1)NC(=O)[C@H](CCCCN)NC(=O)[C@H](CS)NC(=O)[C@H](CCCC)NC(=O)[C@H](CCCNC(=N)N)NC(=O)[C@@H]1CCCN1C(=O)[C@H](CCCNC(=N)N)NC(=O)[C@@H](N)CCC(N)=O)C(=O)N[C@@H](Cc1cc(F)c(F)c(F)c1)C(=O)O [MM262, QRPR-Nle-CKHCR-Aib-R-Nle-(3,4,5-trifluorophenylalanine)] (H-QRPR[Nle]CKHCR[Aib]R[Nle][Phe(3,4,5-F3)]-OH) | 447 nM and 135 nM | 29.5 nM | pA2 = 7.53 | – | 34 nM
CCCC[C@H](NC(=O)[C@H](CCCNC(=N)N)NC(=O)C(C)(C)NC(=O)[C@H](CCCNC(=N)N)NC(=O)[C@H](CS)NC(=O)[C@H](Cc1c[nH]cn1)NC(=O)[C@H](CCCCN)NC(=O)[C@H](CS)NC(=O)[C@H](CCCC)NC(=O)[C@H](CCCNC(=N)N)NC(=O)[C@@H]1CCCN1C(=O)[C@H](CCCNC(=N)N)NC(=O)[C@@H]1CCC(=O)N1)C(=O)N[C@@H](Cc1cc(F)c(F)c(F)c1)C(=O)O [MM297, pyr-RPR-Nle-CKHCR-Aib-R-Nle-(3,4,5-trifluorophenylalanine)] ([pGlu]RPR[Nle]CKHCR[Aib]R[Nle][Phe(3,4,5-F3)]-OH) | 832 nM and 724 nM | 41.7 nM | pA2 = 7.38 | – | 55 nM
CCCC[C@H](NC(=O)[C@H](CCCNC(=N)N)NC(=O)C(C)(C)NC(=O)[C@H](CCCNC(=N)N)NC(=O)[C@H](CS)NC(=O)[C@H](Cc1c[nH]cn1)NC(=O)[C@H](CCCCN)NC(=O)[C@H](CC)NC(=O)[C@H](CCCC)NC(=O)[C@H](CCCNC(=N)N)NC(=O)[C@@H]1CCCN1C(=O)[C@H](CCCNC(=N)N)NC(=O)[C@@H](N)CS)C(=O)N[C@@H](Cc1cc(F)c(F)c(F)c1)C(=O)O [MM298, CRPR-Nle-Abu-KHCR-Aib-R-Nle-(3,4,5-trifluorophenylalanine)] (H-CRPR[Nle][Abu]KHCR[Aib]R[Nle][Phe(3,4,5-F3)]-OH) | 25.7 nM and 75.9 nM | 17.4 nM | pA2 = 7.76 | – | 16 nM
CCCC[C@H](NC(=O)[C@H](CCCNC(=N)N)NC(=O)C(C)(C)NC(=O)[C@H](CCCNC(=N)N)NC(=O)[C@H](CC)NC(=O)[C@H](Cc1c[nH]cn1)NC(=O)[C@H](CCCCN)NC(=O)[C@H](CS)NC(=O)[C@H](CCCC)NC(=O)[C@H](CCCNC(=N)N)NC(=O)[C@@H]1CCCN1C(=O)[C@H](CCCNC(=N)N)NC(=O)[C@H](C)N)C(=O)N[C@@H](Cc1cc(F)c(F)c(F)c1)C(=O)O [MM312, ARPR-Nle-CKH-Abu-R-Aib-R-Nle-(3,4,5-trifluorophenylalanine)] (H-ARPR[Nle]CKH[Abu]R[Aib]R[Nle][Phe(3,4,5-F3)]-OH) | 251 nM and 145 nM | – | – | – | 190 nM and 160 nM
CCCC[C@H](NC(=O)[C@H](CCCNC(=N)N)NC(=O)C(C)(C)NC(=O)[C@H](CCCNC(=N)N)NC(=O)[C@H](CC)NC(=O)[C@H](Cc1c[nH]cn1)NC(=O)[C@H](CCCCN)NC(=O)[C@H](CS)NC(=O)[C@H](CCCC)NC(=O)[C@H](CCCNC(=N)N)NC(=O)[C@@H]1CCCN1C(=O)[C@H](CCCNC(=N)N)NC(=O)[C@H](C)NC(C)=O)C(=O)N[C@@H](Cc1cc(F)c(F)c(F)c1)C(=O)O [MM313, Ac-ARPR-Nle-CKH-Abu-R-Aib-R-Nle-(3,4,5-trifluorophenylalanine)] (Ac-ARPR[Nle]CKH[Abu]R[Aib]R[Nle][Phe(3,4,5-F3)]-OH) | 219 nM and 120 nM | – | – | – | 53 nM and 47 nM
CCCC[C@H](NC(=O)[C@H](CCCNC(=N)N)NC(=O)C(C)(C)NC(=O)[C@H](CCCNC(=N)N)NC(=O)[C@H](CC)NC(=O)[C@H](Cc1c[nH]cn1)NC(=O)[C@H](CCCCN)NC(=O)[C@H](CC)NC(=O)[C@H](CCCC)NC(=O)[C@H](CCCNC(=N)N)NC(=O)[C@@H]1CCCN1C(=O)[C@H](CCCNC(=N)N)NC(=O)[C@H](C)N)C(=O)N[C@@H](Cc1cc(F)c(F)c(F)c1)C(=O)O [MM314, ARPR-Nle-Abu-KH-Abu-R-Aib-R-Nle-(3,4,5-trifluorophenylalanine)] (H-ARPR[Nle][Abu]KH[Abu]R[Aib]R[Nle][Phe(3,4,5-F3)]-OH) | 372 nM and 195 nM | – | – | – | 10 nM and 8.9 nM
CCCCCCCCCCCCCC(=O)N[C@@H](C)C(=O)N[C@@H](CCCNC(=N)N)C(=O)N1CCC[C@H]1C(=O)N[C@@H](CCCNC(=N)N)C(=O)N[C@@H](CCCC)C(=O)N[C@@H](CC)C(=O)N[C@@H](CCCCN)C(=O)N[C@@H](Cc1c[nH]cn1)C(=O)N[C@@H](CC)C(=O)N[C@@H](CCCNC(=N)N)C(=O)NC(C)(C)C(=O)N[C@@H](CCCNC(=N)N)C(=O)N[C@@H](CCCC)C(=O)N[C@@H](Cc1cc(F)c(F)c(F)c1)C(=O)O [MM315, Myristoyl-ARPR-Nle-Abu-KH-Abu-R-Aib-R-Nle-(3,4,5-trifluorophenylalanine)] (Myristoyl-ARPR[Nle][Abu]KH[Abu]R[Aib]R[Nle][Phe(3,4,5-F3)]-OH) | 7.76 nM and 3.02 nM | – | – | – | 2.7 nM and 3 nM
CCCCCCCCCCCCCC(=O)N[C@@H](C)C(=O)N[C@@H](CCCNC(=N)N)C(=O)N1CCC[C@H]1C(=O)N[C@@H](CCCNC(=N)N)C(=O)N[C@@H](CCCC)C(=O)N[C@@H](CC)C(=O)N[C@@H](Cc1c[nH]cn1)C(=O)N[C@@H](CCCCN)C(=O)N[C@@H](CC)C(=O)N[C@@H](CCCNC(=N)N)C(=O)NC(C)(C)C(=O)N[C@@H](CCCNC(=N)N)C(=O)N[C@@H](CCCC)C(=O)N[C@@H](Cc1cc(F)c(F)c(F)c1)C(=O)O [MM316, Myristoyl-ARPR-Nle-Abu-HK-Abu-R-Aib-R-Nle-(3,4,5-trifluorophenylalanine)] (Myristoyl-ARPR[Nle][Abu]HK[Abu]R[Aib]R[Nle][Phe(3,4,5-F3)]-OH) | 13.2 nM and 38.9 nM | – | – | – | 2.8 nM and 3 nM
